# Test results from patent publication US9566342B2, “Compounds for treatment of heart failure” (SOLVOTRIN INNOVATIONS LIMITED, priority 2010, dated 2017).
# Where “and” joins values, the source holds several entries; their conditions need not be identical. Equal values may be shown once. Read-outs that look alike come from different tables or passages of the source.
# Columns and labels:
# [1] = test system: MMP-9 mRNA; assay: TNFα treated human cardiac fibroblasts, MMP-9 transcription (QPCR); format: cell-based; conditions: HCF; for TNFα induced upregulation of MMP-9 mRNA: 10 ng/mL TNFα 72 hours, 75 or 150 μM
# [2] = test system: human colon cancer cells; assay: Colon cancer cell invasiveness, in vitro model; format: cell-based; conditions: low dose, FIG. 10
# [3] = biological target: MMP-8 (Homo sapiens, UniProt P22894); assay: Direct enzyme inhibition, MMP-8; format: biochemical
# MMP-8, sequence (P22894 101-467, species assumed): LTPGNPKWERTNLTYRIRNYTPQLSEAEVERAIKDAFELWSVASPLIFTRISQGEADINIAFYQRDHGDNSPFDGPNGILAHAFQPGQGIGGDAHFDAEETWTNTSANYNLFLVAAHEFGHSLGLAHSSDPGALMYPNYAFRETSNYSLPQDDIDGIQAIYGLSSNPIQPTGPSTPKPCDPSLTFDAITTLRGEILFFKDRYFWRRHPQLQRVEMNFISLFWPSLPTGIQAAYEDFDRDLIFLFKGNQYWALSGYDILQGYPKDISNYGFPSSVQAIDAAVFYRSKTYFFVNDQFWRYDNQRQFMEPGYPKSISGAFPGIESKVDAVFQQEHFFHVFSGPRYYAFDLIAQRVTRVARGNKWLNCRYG
# [4] = test system: MMP-9; assay: PMA-stimulated CaCo2 cells, zymography of media, MMP-9; format: cell-based
# [5] = Blood pressure in non-human primates; conditions: cynomolgus monkeys, over dosing period
# [6] = biological target: T1, MMP-2 (Homo sapiens, UniProt P08253); assay: Direct inhibition of recombinant MMP-2, fluorogenic substrate; format: biochemical; parameters: purchased R&D Systems, Ireland; conditions: read-out: inhibition of recombinant human MMP-2
# T1 sequence (P08253 110-660): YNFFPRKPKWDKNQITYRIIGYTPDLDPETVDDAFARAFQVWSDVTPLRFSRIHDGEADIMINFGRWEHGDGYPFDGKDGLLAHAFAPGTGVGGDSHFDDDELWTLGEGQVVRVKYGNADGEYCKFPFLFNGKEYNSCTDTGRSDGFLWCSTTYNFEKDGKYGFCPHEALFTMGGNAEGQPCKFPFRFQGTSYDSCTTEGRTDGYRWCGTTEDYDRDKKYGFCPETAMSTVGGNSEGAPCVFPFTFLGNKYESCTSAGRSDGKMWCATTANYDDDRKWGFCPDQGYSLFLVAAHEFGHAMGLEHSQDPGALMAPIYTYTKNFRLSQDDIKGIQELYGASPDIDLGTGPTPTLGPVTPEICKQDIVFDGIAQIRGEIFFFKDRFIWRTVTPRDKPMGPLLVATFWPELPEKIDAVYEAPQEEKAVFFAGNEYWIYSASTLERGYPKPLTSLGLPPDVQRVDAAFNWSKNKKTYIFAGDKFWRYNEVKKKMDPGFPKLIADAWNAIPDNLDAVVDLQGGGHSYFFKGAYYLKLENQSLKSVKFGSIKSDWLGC
# [7] = test system: MMP-2; assay: PMA stimulated breast cancer cell model (HT1080 cells), pro-MMP-2 / MMP-2; format: cell-based
# [8] = test system: MMP-9; assay: PMA stimulated fibrosarcoma cell model (HT1080 cells), MMP-9; format: cell-based; conditions: 100 micromolar
# [9] = test system: MMP-2; assay: PMA-stimulated CaCo2 cells, zymography of media, MMP-2; format: cell-based; conditions: 150 uM
# [10] = test system: Human Peripheral Blood mononuclear cells (PBMC) stimulated with TNF-α; assay: MMPs, TIMP-1 and inflammatory markers in supernatants of PBMC stimulated with TNF-α; format: cell-based; conditions: for Interleukin-1β protein level in PBMC supernatant / Interleukin-4 protein level in PBMC supernatant / Interleukin-5 protein level in PBMC supernatant / Interleukin-8 protein level in PBMC supernatant / Interleukin-10 protein level in PBMC supernatant / Interleukin-13 protein level in PBMC supernatant / MMP-1 protein level in PBMC supernatant / MMP-2 protein level in PBMC supernatant / MMP-10 protein level in PBMC supernatant / MMP-3 protein level in PBMC supernatant: 24 hours, TNFα, mean ± SEM
# [11] = biological target: T2, MMP-1 (Homo sapiens, UniProt P03956); assay: Direct enzyme inhibition, MMP-1; format: biochemical
# T2 sequence (P03956 100-469): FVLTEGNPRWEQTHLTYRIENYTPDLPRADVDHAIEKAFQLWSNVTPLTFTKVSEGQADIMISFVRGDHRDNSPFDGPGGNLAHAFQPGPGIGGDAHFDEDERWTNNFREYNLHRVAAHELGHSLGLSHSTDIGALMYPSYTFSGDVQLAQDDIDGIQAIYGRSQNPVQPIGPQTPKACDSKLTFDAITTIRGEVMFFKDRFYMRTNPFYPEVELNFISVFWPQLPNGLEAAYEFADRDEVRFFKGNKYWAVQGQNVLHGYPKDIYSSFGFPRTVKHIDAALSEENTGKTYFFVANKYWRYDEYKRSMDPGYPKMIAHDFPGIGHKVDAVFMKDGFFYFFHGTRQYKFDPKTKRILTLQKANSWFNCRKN
# [12] = biological target: T3, MMP-9 (Homo sapiens, UniProt P14780); assay: Model of direct enzyme inhibition, MMP-9 (IC50); format: biochemical
# T3 sequence (P14780 94-707): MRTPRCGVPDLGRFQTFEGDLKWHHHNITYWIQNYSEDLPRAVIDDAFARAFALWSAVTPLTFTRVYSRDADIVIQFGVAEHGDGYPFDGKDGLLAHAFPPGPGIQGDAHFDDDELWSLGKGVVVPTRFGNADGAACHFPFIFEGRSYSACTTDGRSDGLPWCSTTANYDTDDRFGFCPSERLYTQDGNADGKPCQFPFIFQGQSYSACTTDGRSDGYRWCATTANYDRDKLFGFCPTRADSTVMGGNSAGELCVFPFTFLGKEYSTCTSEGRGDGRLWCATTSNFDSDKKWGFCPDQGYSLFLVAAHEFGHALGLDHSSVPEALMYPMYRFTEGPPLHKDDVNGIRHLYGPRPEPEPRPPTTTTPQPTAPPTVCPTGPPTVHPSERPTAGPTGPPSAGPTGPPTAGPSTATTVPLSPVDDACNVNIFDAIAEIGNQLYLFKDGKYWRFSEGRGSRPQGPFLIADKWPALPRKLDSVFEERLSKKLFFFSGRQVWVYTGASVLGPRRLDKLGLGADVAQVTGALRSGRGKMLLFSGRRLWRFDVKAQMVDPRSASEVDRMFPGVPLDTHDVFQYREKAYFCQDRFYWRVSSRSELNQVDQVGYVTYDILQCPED
# [13] = test system: MMP-9; assay: Total MMP-9 levels on repeated oral administration in non-human primates; format: in vivo, cynomolgus monkeys; conditions: for total plasma MMP-9, median AUC: NHPs, daily orogastric gavage for 72 hours, n=6; for change in MMP-9 from baseline to 72 hours: oral gavage once daily for three days, n=6 per group
# [14] = Plasma doxycycline and nitrite/nitrate (NOx) in non-human primates; format: in vivo, cynomolgus monkeys; conditions: cynomolgus monkey, po, 4.8 mg/kg doxycycline hyclate, day 3 of dosing, base equivalents, read-out: Maximum plasma doxycycline concentration (Cmax)
# [15] = biological target: T1, MMP-2; assay: Model of direct enzyme inhibition, MMP-2 (IC50); format: biochemical
# [16] = cancer patients, Phase I, cited from earlier work
# [17] = test system: MMP-2 mRNA; assay: TNFα treated human cardiac fibroblasts, MMP-2 transcription (QPCR); format: cell-based; conditions: HCF, 10 ng/mL TNFα 72 hours, 75 or 150 μM
# [18] = biological target: MMP-13 (Homo sapiens, UniProt P45452); assay: Direct enzyme inhibition, MMP-13; format: biochemical
# [19] = biological target: T3, MMP-9; assay: Direct inhibition of recombinant MMP-9, fluorogenic substrate; format: biochemical; parameters: purchased R&D Systems, Ireland; conditions: read-out: inhibition of recombinant human MMP-9
# [20] = test system: Human Ventricular Cardiac Fibroblast (HCF); assay: Human ventricular cardiac fibroblast proliferation (CellTitre-Glo); format: cell-based
smiles,measurement,setting,value
"C[C@H]1c2cccc(O)c2C(=O)C2=C(O)[C@]3(O)C(=O)C(C(N)=O)=C(O)[C@@H](N(C)C)[C@@H]3[C@@H](O)[C@@H]21 [Doxycycline, (4S,4aR,5S,5aR,6R,12aS)-4-(dimethylamino)-3,5,10,12,12a-pentahydroxy-6-methyl-1,11-dioxo-1,4,4a,5,5a,6,11,12a-octahydrotetracene-2-carboxamide, reference compound]",MMP-9 protein levels in treated cell supernatants,[1],below the lower limit of quantification
same,TNFα induced upregulation of MMP-9 mRNA,[1],"In contrast to doxycycline hyclate, SI1004 significantly inhibited"
same,colon cancer cell invasiveness,[2],does not reduce colon cancer cell invasiveness
same,inhibition at 100 µM,[3],~42.7%
same,suppression of MMP-9 activity relative to PMA positive control,"[4]; CaCo2 cells, PMA, 150 uM",did not affect MMP-9 levels
same,diastolic blood pressure,[5],58.6±6.0 mmHg
same,mean systolic blood pressure,[5],109.7±7.1 mmHg
same,inhibition at 100 µM,[6]; 100 μM,34 ± 3.5%
same,conversion of pro-MMP-2 to active MMP-2 (activation of MMP-2),"[7]; HT1080 cells, PMA, 100 μM",increase the conversion of available pro-MMP-2 to active MMP-2
same,pro-MMP-2 production,"[7]; HT1080 cells, PMA, 100 micromolar",reduce pro-MMP-2 production
same,MMP-9 production,[8],reduce MMP-9 production
same,inhibition of MMP-2 activity relative to PMA positive control,[9],80%
same,Interleukin-1β protein level in PBMC supernatant,[10]; 75 μM,34.6 ± 5.8 ng/mL
same,Interleukin-4 protein level in PBMC supernatant,[10]; 75 μM,9.4 ± 1.2 ng/mL
same,Interleukin-5 protein level in PBMC supernatant,[10]; 75 μM,40.8 ± 9.0 ng/mL
same,Interleukin-8 protein level in PBMC supernatant,[10]; 75 μM,8852 ± 2568 ng/mL
same,Interleukin-10 protein level in PBMC supernatant,[10]; 75 μM,136.6 ± 74.2 ng/mL
same,Interleukin-13 protein level in PBMC supernatant,[10]; 75 μM,79.6 ± 17.2 ng/mL
same,MMP-1 protein level in PBMC supernatant,[10]; 75 μM,144.0 ± 80.0 ng/mL
same,MMP-2 protein level in PBMC supernatant,[10]; 75 μM,61.4 ± 54.2 ng/mL
same,MMP-10 protein level in PBMC supernatant,[10]; 75 μM,36.0 ± 14.0 ng/mL
same,Interleukin-1β protein level in PBMC supernatant,[10]; 150 μM,30.6 ± 5.0 ng/mL
same,Interleukin-4 protein level in PBMC supernatant,[10]; 150 μM,9.8 ± 0.8 ng/mL
same,Interleukin-5 protein level in PBMC supernatant,[10]; 150 μM,31.2 ± 5.8 ng/mL
same,Interleukin-10 protein level in PBMC supernatant,[10]; 150 μM,92.2 ± 33.8 ng/mL
same,Interleukin-13 protein level in PBMC supernatant,[10]; 150 μM,80.2 ± 3.2 ng/mL
same,MMP-1 protein level in PBMC supernatant,[10]; 150 μM,134 ± 48 ng/mL
same,MMP-2 protein level in PBMC supernatant,[10]; 150 μM,96.8 ± 80.6 ng/mL
same,MMP-10 protein level in PBMC supernatant,[10]; 150 μM,47.6 ± 15.8 ng/mL
same,"IL-8 levels in TNFalpha stimulated PBMCs (admixture study, FIG. 14)",[10]; 150 micromolar,also reduce IL-8 levels compared to controls
same,inhibition at 100 µM,[11],~12%
same,IC50,[12],~164 µM and 164 µM
same,"total plasma MMP-9, median AUC",[13],8.7 µg·h/mL
same,change in MMP-9 from baseline to 72 hours,[13]; cynomolgus monkeys,MMP-9 levels increase
same,Cmax,[14],5.1 µM
same,IC50,[15],~129 µM and 129 µM
same,"oral dose resulting in dose-limiting toxicity (fatigue, confusion, nausea, vomiting)",[16],400 mg administered twice a day
same,maximum tolerated dose,[16]; oral,300 mg twice a day
same,MMP-2 mRNA expression,[17],no significant effects
same,inhibition at 100 µM,[18]; 100 μM,~54%
same,inhibition at 100 µM,[19]; 100 μM,33.3 ± 3.5%
"C[C@H]1c2cccc(O)c2C(=O)C2=C(O)[C@]3(O)C(=O)C(C(=O)NCN(CCO[N+](=O)[O-])CCO[N+](=O)[O-])=C(O)[C@@H](N(C)C)[C@@H]3[C@@H](O)[C@@H]21 [SI1004, amido-N—[N,N-diethylnitrate-aminomethyl]-α-6-deoxy-5-oxytetracycline]",MMP-9 protein levels in treated cell supernatants,[1],below the lower limit of quantification
same,TNFα induced upregulation of MMP-9 mRNA,[1],significantly inhibited
same,colon cancer cell invasiveness,[2],more effective in reducing tumour cell invasiveness
same,melting point,,101 to 104 °C
same,inhibition at 10 µM,[3]; 10 μM,~26%
same,inhibition at 100 µM,[3],~60.7%
same,suppression of MMP-9 activity relative to PMA positive control,[4],approximately 60%
same,diastolic blood pressure,[5],56.4±3.8 mmHg
same,mean systolic blood pressure,[5],101±6.3 mmHg
same,inhibition at 100 µM,[6],29.7 ± 2.1%
same,conversion of pro-MMP-2 to active MMP-2 (activation of MMP-2),[7],do not appear to activate MMP-2
same,inhibition of HCF proliferation,"[20]; 75-150 μM, 2% FCS following serum starvation for 72 hours",significant inhibition
same,"inhibition of cardiac fibroblast proliferation (admixture study, FIG. 13)",[20]; 150 micromolar,significantly more effective at inhibiting cardiac fibroblast proliferation
same,inhibition of MMP-2 activity relative to PMA positive control,[9],about 40%
same,MMP-3 in in vitro inflammatory cell models,[10],does not reduce MMP-3
same,Interleukin-1β protein level in PBMC supernatant,[10]; 75 μM,27.8 ± 6.6 ng/mL
same,Interleukin-4 protein level in PBMC supernatant,[10]; 75 μM,10.8 ± 0.2 ng/mL
same,Interleukin-5 protein level in PBMC supernatant,[10]; 75 μM,35.8 ± 8.4 ng/mL
same,Interleukin-8 protein level in PBMC supernatant,[10]; 75 μM,10960 ± 484 ng/mL
same,Interleukin-10 protein level in PBMC supernatant,[10]; 75 μM,125.6 ± 32.2 ng/mL
same,Interleukin-13 protein level in PBMC supernatant,[10]; 75 μM,80.8 ± 24.8 ng/mL
same,MMP-1 protein level in PBMC supernatant,[10]; 75 μM,208 ± 102 ng/mL
same,MMP-2 protein level in PBMC supernatant,[10]; 75 μM,120.4 ± 86.4 ng/mL
same,MMP-3 protein level in PBMC supernatant,[10]; 75 μM,8.7 ± 5.2 ng/mL
same,MMP-10 protein level in PBMC supernatant,[10]; 75 μM,26.6 ± 18.4 ng/mL
same,Interleukin-5 protein level in PBMC supernatant,[10]; 150 μM,35.6 ± 6.4 ng/mL
same,Interleukin-10 protein level in PBMC supernatant,[10]; 150 μM,142.0 ± 55.2 ng/mL
same,Interleukin-13 protein level in PBMC supernatant,[10]; 150 μM,89.4 ± 13.2 ng/mL
same,MMP-1 protein level in PBMC supernatant,[10]; 150 μM,171 ± 66.0 ng/mL
same,MMP-2 protein level in PBMC supernatant,[10]; 150 μM,95.4 ± 52 ng/mL
same,MMP-3 protein level in PBMC supernatant,[10]; 150 μM,9.1 ± 6.1 ng/mL
same,MMP-10 protein level in PBMC supernatant,[10]; 150 μM,29.0 ± 14.6 ng/mL
same,inhibition at 10 µM,[11]; 10 μM,~19%
same,inhibition at 100 µM,[11],~63%
same,IC50,[12],25 µM
same,"total plasma MMP-9, median AUC",[13],4.3 µg·h/mL
same,change in MMP-9 from baseline to 72 hours,[13]; cynomolgus monkeys,significantly reduced compared to doxycycline
same,suppression of total serum MMP-9 protein levels,"[13]; cynomolgus monkeys, oral, daily for 3 days, vs doxycycline",more effective suppression
same,IC50,[15],9.4 µM
same,MMP-2 mRNA expression,[17],no significant effects
same,inhibition at 10 µM,[18]; 10 μM,~46%
same,MMP-13 inhibition,[18]; at 1000 (so in the source),around 74.5%
same,inhibition at 100 µM,[19],26.6 ± 1.7%
